In US6946467B2, “Serine protease inhibitors” (Eli Lilly and Company, priority 2000, dated 2005) one finds melting point data, which are given here for four compounds.

Counter-ions that a name gives are not always drawn.

A word on the melting point: it is the temperature, or range, at which the solid turns liquid. For the compound `Cl.O=C(N[C@@H](C(=O)N1CCN(CCc2nccs2)CC1)c1ccccc1)c1ccc2cc[nH]c2c1`, the melting point was 135 to 142 °C (dec.).

For the compound `Cl.N#Cc1cc(CCN2CCN(C(=O)[C@H](NC(=O)c3ccc4cc[nH]c4c3)c3ccccc3)CC2)ccn1`, the melting point lay within 156 to 169 °C. As for `COc1ccc(C(=O)N[C@@H](C(=O)N2CCN(CCC3CCCC3)CC2)c2ccccc2)cc1` (as salt: hydrochloride) [Example 30, 1-(4-Methoxybenzoyl-D-phenylglycinyl)-4-(2-cyclopentylethyl)piperazine], the figure is 190 to 192 °C. In the case of `O=C(N[C@@H](C(=O)N1CCN(CCc2ccncc2F)CC1)c1ccccc1)c1ccc2cc[nH]c2c1` [Example 58a, 1-[Indole-6-carbonyl-D-phenylglycinyl]-4-[2-(3-fluoropyridin-4-yl)ethyl]piperazine] it was 135 to 145 °C (dec.).
